Data reported in the supplement of paper PMC10307832.

Legend:
Test in all cases: relative viability (nuclei count vs DMSO), 5 days (fraction); higher = more cells survive
TPCA-1 + Pemetrexed = compound: C1=CC(=CC=C1C2=CC(=C(S2)NC(=O)N)C(=O)N)F [TPCA-1] + Nc1nc2[nH]cc(CCc3ccc(C(=O)N[C@@H](CCC(=O)O)C(=O)O)cc3)c2c(=O)[nH]1 [Pemetrexed] (partner 0.2 µM)
How it was run: (§1)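 Relative viability divides the nuclei count in treated wells by that in vehicle wells. Lung cancer cell lines were seeded in 1536-well plates, dosed by pin tool the next day, and fixed and stained after 5 days in one step with final 0.05% Triton X-100, 1% formaldehyde and 1 ug/ml Hoechst. Dosing was a single drug or a fixed anchor-drug dose plus five library-drug doses (not always all listed) in √10 steps, and values are medians of duplicate plates imaged at 4×.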

[1] = compound: C[C@]12O[C@H](C[C@]1(O)CO)n1c3ccccc3c3c4c(c5c6ccccc6n2c5c31)CNC4=O [Lestaurtinib] + Cc1cc(Nc2cc(N3CCN(C)CC3)nc(Sc3ccc(NC(=O)C4CC4)cc3)n2)n[nH]1 [Tozasertib] (partner 0.1 µM)
How it was run: as §1

[2] = compound: C1/C(=C\C2=CC=CS2)/C(=O)/C(=C/C3=CC=CS3)/C1 + COc1cc2c(Oc3ccc(NC(=O)C4(C(=O)Nc5ccc(F)cc5)CC4)cc3F)ccnc2cc1OCCCN1CCOCC1 [Foretinib] (partner 0.25 µM)
How it was run: as §1

[3] = compound: C[C@]12O[C@H](C[C@]1(O)CO)n1c3ccccc3c3c4c(c5c6ccccc6n2c5c31)CNC4=O [Lestaurtinib] + Nc1ncn([C@H]2C[C@H](O)[C@@H](CO)O2)c(=O)n1 [Decitabine] (partner 2 µM)
How it was run: as §1

| Cell Line | relative viability (TPCA-1 + Pemetrexed; first compound 0.04 µM) | relative viability (TPCA-1 + Pemetrexed; first compound 0.1265 µM) | relative viability (TPCA-1 + Pemetrexed; first compound 0.4 µM) | relative viability (TPCA-1 + Pemetrexed; first compound 1.265 µM) | relative viability (TPCA-1 + Pemetrexed; first compound 4 µM) | relative viability ([1]; first compound 0.005 µM) | relative viability ([1]; first compound 0.01581 µM) | relative viability ([1]; first compound 0.05 µM) | relative viability ([1]; first compound 0.1581 µM) | relative viability ([1]; first compound 0.5 µM) | relative viability ([2]; first compound 0.2 µM) | relative viability ([2]; first compound 0.6325 µM) | relative viability ([2]; first compound 2 µM) | relative viability ([2]; first compound 20 µM) | relative viability ([3]; first compound 0.005 µM) | relative viability ([3]; first compound 0.01581 µM) | relative viability ([3]; first compound 0.05 µM) | relative viability ([3]; first compound 0.1581 µM) | relative viability ([3]; first compound 0.5 µM) | relative viability ([2]; first compound 6.325 µM) |
| --- | --- | --- | --- | --- | --- | --- | --- | --- | --- | --- | --- | --- | --- | --- | --- | --- | --- | --- | --- | --- |
| NCI-H358 | 0.187 | 0.167 | 0.162 | 0.156 | 0.167 | 0.103 | 0.0848 | 0.0849 | 0.0845 | 0.0896 | 0.668 | 0.742 | 0.761 | 0.631 | 0.219 | 0.212 | 0.15 | 0.12 | 0.144 |  |
| PC-3 [JPC-3] | 1.17 | 1.03 | 1.22 | 1.09 | 0.535 | 0.87 | 0.998 | 0.765 | 0.777 | 0.587 | 1.11 | 1.05 | 1.01 | 1.11 | 0.814 | 0.829 | 0.915 | 0.816 | 0.733 | 0.865 |
| NCI-H1792 | 1.24 | 0.721 | 0.764 | 0.672 | 0.222 |  |  |  |  |  |  |  |  |  | 0.485 | 0.567 | 0.336 | 0.543 | 0.256 |  |
| NCI-H596 | 0.53 | 0.516 | 0.532 | 0.509 | 0.412 | 0.885 | 1.16 | 0.746 | 1.06 | 0.955 | 0.895 | 0.847 | 0.872 | 0.905 | 1.04 | 1.55 | 0.936 | 1.26 | 1.07 | 0.753 |
| RERF-LC-KJ | 0.473 | 0.474 | 0.469 | 0.524 | 0.488 | 0.489 | 0.592 | 0.44 | 0.433 | 0.284 | 0.932 | 0.929 | 0.866 | 0.808 | 0.869 | 0.791 | 0.563 | 0.562 | 0.241 | 0.985 |
| NCI-H322M | 0.614 | 0.481 | 0.57 | 0.566 | 0.497 | 0.483 | 0.276 | 0.355 | 0.397 | 0.415 | 1 | 1.06 | 1.1 | 0.874 | 0.755 | 0.784 |  | 0.647 | 0.756 | 0.855 |
| COR-L 105 | 1.02 | 0.931 | 1.23 | 1.03 | 0.777 | 0.406 | 0.355 | 0.35 | 0.31 | 0.268 | 1.49 | 1.02 | 1.31 | 1.03 | 0.687 | 0.663 | 0.582 | 0.505 | 0.385 |  |
| NCI-H1993 | 0.613 | 0.547 | 0.564 | 0.628 | 0.503 | 0.636 | 0.545 | 0.57 | 0.54 | 0.529 | 0.748 | 0.751 | 0.75 | 0.745 | 0.62 | 0.666 | 0.729 | 0.499 | 0.428 | 0.572 |
| NCI-H1437 | 0.318 | 0.326 | 0.318 | 0.302 | 0.298 | 0.451 | 0.438 | 0.373 | 0.309 | 0.408 | 1.31 | 1.3 | 1.25 | 1.23 | 0.546 | 0.649 | 0.645 | 0.626 | 0.636 | 1.1 |
| NCI-H838 | 0.25 | 0.225 | 0.259 | 0.264 | 0.294 | 0.275 | 0.238 | 0.275 | 0.2 | 0.171 | 0.998 | 1.1 | 1.04 | 0.968 | 0.508 | 0.559 | 0.501 | 0.399 | 0.161 | 0.812 |
| NCI-H1666 | 1.02 | 0.818 | 0.842 | 0.82 | 0.93 | 0.656 | 0.663 | 0.686 | 0.531 | 0.373 | 0.99 | 1.01 | 0.965 | 0.958 | 0.769 | 0.807 | 0.944 | 0.912 | 0.704 | 0.865 |
| EBC-1 |  |  |  |  |  |  |  |  |  |  | 0.112 | 0.091 | 0.0946 | 0.0934 |  |  |  |  |  | 0.111 |
| ABC-1 |  |  |  |  |  | 0.208 | 0.175 | 0.134 | 0.155 | 0.2 | 0.984 | 0.991 | 1.1 | 1.2 | 1.31 | 1.36 | 1.12 | 0.96 | 0.66 | 0.617 |
| NCI-H1563 | 0.799 | 0.508 | 0.788 | 0.642 | 0.599 |  |  |  |  |  | 0.952 | 1.1 | 0.968 | 0.93 |  |  |  |  |  | 0.895 |
| NCI-H1648 | 0.824 | 0.702 | 0.769 | 0.76 | 0.809 | 0.377 | 0.649 | 0.391 | 0.487 | 0.49 |  |  |  |  |  | 0.535 |  | 0.762 | 0.512 |  |
| NCI-H1299 |  |  |  |  |  |  |  |  |  |  | 1.17 | 1.12 | 1.1 | 1.11 |  |  |  |  |  | 1.03 |
| A549 |  |  |  |  |  |  |  |  |  |  | 0.888 | 1.01 | 0.968 | 0.937 | 0.262 | 0.253 | 0.279 | 0.318 | 0.185 |  |
| NCI-H1623 |  |  |  |  |  | 0.42 | 0.722 | 0.415 | 0.418 | 0.424 | 0.863 | 0.907 | 0.871 | 0.821 |  |  |  |  |  | 0.786 |
| NCI-H1703 |  |  |  |  |  |  |  |  |  |  | 0.381 | 0.451 | 0.33 | 0.337 |  |  |  |  |  | 0.257 |
| HCC-44 | 0.617 | 0.657 | 0.575 | 0.627 | 0.595 | 0.882 | 1.08 | 0.996 | 1.48 | 0.354 |  |  |  |  | 0.967 | 0.963 | 0.926 | 1.1 | 0.745 |  |
| NCI-H522 | 1.21 | 0.765 | 1.15 | 1.14 | 0.975 | 0.571 | 0.536 | 0.627 | 0.528 | 0.496 |  |  |  |  | 0.683 | 0.71 | 0.811 | 0.652 | 0.537 |  |
| Calu-6 |  |  |  |  |  |  |  |  |  |  | 0.833 | 0.945 | 0.895 | 0.82 |  |  |  |  |  | 0.759 |
